From PubChem BioAssay (NCI)
Several values for one entry are separate records, joined by “and”; a condition that tells them apart may be missing. Equal entries are not always repeated.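 Cells were grown in 96-well plates and exposed to each compound for 48 hours at five concentrations; endpoints were interpolated linearly between bracketing concentrations, or set to the highest concentration if not reached. Abbreviation: GI50, concentration required for 50% inhibition of growth. TGI: total growth inhibition.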

Legend:
Assay in all cases: inhibition of tumour cell growth, NCI panel, 48 h
RXF 393 renal = system: RXF 393 renal
COLO 205 colon = system: COLO 205 colon
SF-295 CNS = system: SF-295 CNS
A498 renal = system: A498 renal
SR leukemia = system: SR leukemia
OVCAR-4 ovarian = system: OVCAR-4 ovarian
CAKI-1 renal = system: CAKI-1 renal
OVCAR-3 ovarian = system: OVCAR-3 ovarian
UO-31 renal = system: UO-31 renal
OVCAR-8 ovarian = system: OVCAR-8 ovarian
HCC-2998 colon = system: HCC-2998 colon
NCI-H23 lung = system: NCI-H23 lung
HCT-116 colon = system: HCT-116 colon

| SMILES | TGI (RXF 393 renal) | TGI (COLO 205 colon) [µM] | TGI (SF-295 CNS) [µM] | TGI (A498 renal) [µM] | TGI (SR leukemia) [µM] | TGI (OVCAR-4 ovarian) [µM] | TGI (CAKI-1 renal) [µM] | TGI (OVCAR-3 ovarian) [µM] | TGI (UO-31 renal) [µM] | TGI (OVCAR-8 ovarian) [µM] | TGI (HCC-2998 colon) [µM] | TGI (NCI-H23 lung) [µM] | TGI (HCT-116 colon) [µM] | GI50 (RXF 393 renal) | GI50 (A498 renal) [µM] | GI50 (SR leukemia) [µM] | GI50 (OVCAR-4 ovarian) [µM] | GI50 (CAKI-1 renal) [µM] | GI50 (OVCAR-3 ovarian) [µM] | GI50 (UO-31 renal) [µM] |
| --- | --- | --- | --- | --- | --- | --- | --- | --- | --- | --- | --- | --- | --- | --- | --- | --- | --- | --- | --- | --- |
| CS/C(=N\C(=S)Nc1ccccc1)Nc1ccccc1 | 48.4 µM | 78.1 | 97 | 81.5 | 64.1 | > 100 | 54.7 | 48 | 43.1 | 77.4 | 57 | > 100 | – | – | – | – | – | – | – | – |
| COc1ccc(C2C(=O)C(Cl)N2Nc2nc(C)cc(=O)[nH]2)cc1OC (configuration not stated) | > 100 µM | > 100 | – | – | > 100 | > 100 | – | 84.8 | > 100 | > 100 | > 100 | > 100 | > 100 | – | – | – | – | – | – | – |
| FC(F)(F)C(C1=NC(C(F)(F)F)(C(F)(F)F)N=C(N2CCOCC2)O1)C(F)(F)F | 37 µM | 38.9 | 44.6 | – | 61.2 | 66.1 | 61.6 | > 100 | > 100 | 47.3 | > 100 | – | > 100 | – | – | – | – | – | – | – |
| CCCCCCCCCCCCCCCC[N+](C)(C)CCN(Cc1ccc(OC)cc1)c1ncccn1 | 3.49 µM and 2.43 µM | – | – | 5.21 | > 100 | 4.88 | 34 | 3.32 | 52.9 | – | – | – | – | 1.52 µM and 0.821 µM | 1.69 | 1.25 | 1.85 | 8.14 | 1.14 | 5.65 |
| COc1ccccc1N1C(Cl)C(=O)C1c1c[nH]c2ccccc12 (configuration not stated) | > 100 µM | > 100 | > 100 | – | > 100 | > 100 | – | > 100 | > 100 | > 100 | – | > 100 | > 100 | – | – | – | – | – | – | – |
